These are literature values, as cited in patent US7332520B2, “Fused indoles as dipeptidyl peptidase inhibitors for the treatment or prevention of diabetes” (Merck & Co., Inc., priority 2003, dated 2008).

The target in one data set is T1, DP-IV (Homo sapiens, UniProt P27487).
T1 construct: GRF is rapidly degraded in plasma to GRF[3-44]

The subject of the next data set is hematopoiesis. As to conditions: mouse, cyclophosphamide-induced neutropenia.

T1 sequence (P27487 39-766 limits assumed): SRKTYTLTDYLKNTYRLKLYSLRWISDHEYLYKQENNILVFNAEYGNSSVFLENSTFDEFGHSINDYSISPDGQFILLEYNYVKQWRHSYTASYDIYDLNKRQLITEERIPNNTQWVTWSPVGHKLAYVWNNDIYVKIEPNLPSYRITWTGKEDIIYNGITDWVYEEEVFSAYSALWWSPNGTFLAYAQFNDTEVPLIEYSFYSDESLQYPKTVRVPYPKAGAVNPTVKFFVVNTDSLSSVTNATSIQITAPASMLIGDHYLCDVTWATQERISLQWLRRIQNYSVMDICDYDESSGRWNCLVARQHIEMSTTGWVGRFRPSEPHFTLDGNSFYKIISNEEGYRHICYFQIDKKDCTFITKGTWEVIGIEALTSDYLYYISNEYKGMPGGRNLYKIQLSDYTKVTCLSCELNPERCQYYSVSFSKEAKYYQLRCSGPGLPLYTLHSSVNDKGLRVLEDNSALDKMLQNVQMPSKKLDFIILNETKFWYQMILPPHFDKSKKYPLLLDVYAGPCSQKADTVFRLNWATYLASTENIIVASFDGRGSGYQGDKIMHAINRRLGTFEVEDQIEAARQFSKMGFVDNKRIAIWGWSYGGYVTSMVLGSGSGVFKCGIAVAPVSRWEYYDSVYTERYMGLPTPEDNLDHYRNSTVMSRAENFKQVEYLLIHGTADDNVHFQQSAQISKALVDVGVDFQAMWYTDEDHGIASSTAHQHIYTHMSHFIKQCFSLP

For `CC[C@H](C)[C@H](N)C(=O)N1CCC[C@H]1C(=O)N[C@H](C(=O)O)[C@@H](C)CC` [diprotin A], at DP-IV, the “degradation of GRF in plasma to GRF[3-44]” value is “prevented”.

Take `CC(C)[C@H](N)C(=O)N1CCC[C@H]1B(O)O` [Val-Boro-Pro]: the hematopoiesis entry in the data set with hematopoiesis was “stimulated hematopoiesis”.
